For orientation: Kd means the constant that tells how readily two partners part at equilibrium. A higher Kd goes with a looser complex. As a reminder, the ΔTm is the shift of the melting midpoint relative to a reference.

Active and inactive are the calls of the source. The rule behind the calls is not given here.

The values below come from ChEMBL document CHEMBL3774375, “Structure-Based Identification of Inhibitory Fragments Targeting the p300/CBP-Associated Factor Bromodomain” (J Med Chem, 2016).

Experiment [1] addresses T1, Histone acetyltransferase KAT2B (Homo sapiens, UniProt Q92831). Briefly: Binding affinity to N-terminal His-tagged PCAF (715 to 831 residues) (unknown origin) expressed in Escherichia coli Rosetta cells by isothermal titration calorimetry. In general terms: In ITC the heat of successive injections is recorded.
Target sequence in this assay (Q92831 whole entry, the tested form may be a part): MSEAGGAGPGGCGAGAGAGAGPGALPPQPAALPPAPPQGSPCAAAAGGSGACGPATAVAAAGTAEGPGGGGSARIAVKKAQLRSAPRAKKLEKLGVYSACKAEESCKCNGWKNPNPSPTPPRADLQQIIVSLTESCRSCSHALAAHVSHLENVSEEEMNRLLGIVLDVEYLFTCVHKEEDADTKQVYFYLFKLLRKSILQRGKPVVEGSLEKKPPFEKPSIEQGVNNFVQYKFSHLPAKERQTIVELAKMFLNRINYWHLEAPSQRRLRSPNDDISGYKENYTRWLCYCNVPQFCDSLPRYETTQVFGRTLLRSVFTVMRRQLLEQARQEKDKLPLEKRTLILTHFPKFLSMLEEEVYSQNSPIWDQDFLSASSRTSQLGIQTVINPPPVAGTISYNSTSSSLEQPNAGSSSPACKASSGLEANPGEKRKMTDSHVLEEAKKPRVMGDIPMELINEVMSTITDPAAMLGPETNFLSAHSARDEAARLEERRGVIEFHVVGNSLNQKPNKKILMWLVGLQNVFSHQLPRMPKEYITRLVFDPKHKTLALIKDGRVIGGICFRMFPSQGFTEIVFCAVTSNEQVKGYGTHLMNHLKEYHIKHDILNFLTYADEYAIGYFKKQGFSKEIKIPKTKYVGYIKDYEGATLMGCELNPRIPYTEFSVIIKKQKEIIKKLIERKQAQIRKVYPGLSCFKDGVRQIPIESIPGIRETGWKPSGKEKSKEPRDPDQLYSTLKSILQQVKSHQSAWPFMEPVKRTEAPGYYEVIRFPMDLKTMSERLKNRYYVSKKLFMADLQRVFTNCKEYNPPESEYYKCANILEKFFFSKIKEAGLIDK
Experiment [2] has as its target Chromatin remodeling regulator CECR2 (Homo sapiens) (UniProt Q9BXF3). Briefly: Binding affinity to recombinant human CECR2 by differential scanning fluorimetry.
Experiment [3] addresses T2, Bromodomain-containing protein 7 (Homo sapiens) (UniProt Q9NPI1).
T2 sequence (whole entry): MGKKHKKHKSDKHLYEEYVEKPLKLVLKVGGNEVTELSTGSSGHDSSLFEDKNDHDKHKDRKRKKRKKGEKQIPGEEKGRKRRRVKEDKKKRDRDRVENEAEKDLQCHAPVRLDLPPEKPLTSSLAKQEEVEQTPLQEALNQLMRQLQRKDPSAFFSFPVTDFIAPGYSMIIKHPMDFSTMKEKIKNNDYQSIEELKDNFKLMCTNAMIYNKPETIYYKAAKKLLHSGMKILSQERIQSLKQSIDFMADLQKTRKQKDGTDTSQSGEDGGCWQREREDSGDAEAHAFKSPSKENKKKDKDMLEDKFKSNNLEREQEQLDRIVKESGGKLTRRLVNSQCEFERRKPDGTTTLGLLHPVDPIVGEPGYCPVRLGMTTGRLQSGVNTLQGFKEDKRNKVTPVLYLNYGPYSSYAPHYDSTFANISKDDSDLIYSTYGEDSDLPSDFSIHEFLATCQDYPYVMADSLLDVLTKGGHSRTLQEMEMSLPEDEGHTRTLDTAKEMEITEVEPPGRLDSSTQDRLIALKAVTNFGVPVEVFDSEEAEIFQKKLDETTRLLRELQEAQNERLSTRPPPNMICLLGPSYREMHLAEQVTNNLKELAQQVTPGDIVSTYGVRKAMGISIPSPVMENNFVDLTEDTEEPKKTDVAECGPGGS
The experiment is described as follows: Binding affinity to recombinant human BRD7 by differential scanning fluorimetry. A general note: DSF heats the sample and reads unfolding from a dye or from intrinsic fluorescence.

The target of experiment [4] is T1, Histone acetyltransferase KAT2B. Briefly: Binding affinity to recombinant N-terminal His-tagged PCAF (715 to 831 residues) (unknown origin) expressed in Escherichia coli Rosetta cells at 0.5 mM by differential scanning fluorimetry.
Target sequence in this assay (Q92831 whole entry, looked up, the tested form may be a part): as the sequence (Q92831 whole entry, the tested form may be a part) above
Experiment [5] shares this target.
Target sequence in this assay (Q92831 whole entry, looked up, the tested form may be a part): as the sequence (Q92831 whole entry, the tested form may be a part) above
Description: Binding affinity to recombinant N-terminal His-tagged PCAF (715 to 831 residues) (unknown origin) expressed in Escherichia coli Rosetta cells at 1 mM by differential scanning fluorimetry
The target in experiment [6] is T3, Bromodomain-containing protein 9 (Homo sapiens) (UniProt Q9H8M2).
T3 sequence (whole entry): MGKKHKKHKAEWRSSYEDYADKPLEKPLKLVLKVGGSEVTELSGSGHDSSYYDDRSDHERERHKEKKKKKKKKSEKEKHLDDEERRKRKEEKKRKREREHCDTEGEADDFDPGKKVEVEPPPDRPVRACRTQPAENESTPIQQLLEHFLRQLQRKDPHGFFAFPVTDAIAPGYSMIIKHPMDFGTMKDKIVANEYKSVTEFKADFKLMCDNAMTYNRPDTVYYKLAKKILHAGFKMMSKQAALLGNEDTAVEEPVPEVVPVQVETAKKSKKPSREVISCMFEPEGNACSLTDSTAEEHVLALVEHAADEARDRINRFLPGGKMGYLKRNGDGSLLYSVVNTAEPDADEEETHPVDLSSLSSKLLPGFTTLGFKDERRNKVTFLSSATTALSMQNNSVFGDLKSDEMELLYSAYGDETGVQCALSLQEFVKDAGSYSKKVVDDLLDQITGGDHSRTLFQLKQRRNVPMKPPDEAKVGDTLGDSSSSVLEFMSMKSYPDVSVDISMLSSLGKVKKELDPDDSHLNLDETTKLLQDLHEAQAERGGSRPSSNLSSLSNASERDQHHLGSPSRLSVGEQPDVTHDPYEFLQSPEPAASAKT
Briefly: Inhibition of BRD9 (unknown origin) at 25 uM by alphascreen assay.

Chromatin remodeling regulator CECR2 (Homo sapiens), sequence (Q9BXF3 whole entry, looked up): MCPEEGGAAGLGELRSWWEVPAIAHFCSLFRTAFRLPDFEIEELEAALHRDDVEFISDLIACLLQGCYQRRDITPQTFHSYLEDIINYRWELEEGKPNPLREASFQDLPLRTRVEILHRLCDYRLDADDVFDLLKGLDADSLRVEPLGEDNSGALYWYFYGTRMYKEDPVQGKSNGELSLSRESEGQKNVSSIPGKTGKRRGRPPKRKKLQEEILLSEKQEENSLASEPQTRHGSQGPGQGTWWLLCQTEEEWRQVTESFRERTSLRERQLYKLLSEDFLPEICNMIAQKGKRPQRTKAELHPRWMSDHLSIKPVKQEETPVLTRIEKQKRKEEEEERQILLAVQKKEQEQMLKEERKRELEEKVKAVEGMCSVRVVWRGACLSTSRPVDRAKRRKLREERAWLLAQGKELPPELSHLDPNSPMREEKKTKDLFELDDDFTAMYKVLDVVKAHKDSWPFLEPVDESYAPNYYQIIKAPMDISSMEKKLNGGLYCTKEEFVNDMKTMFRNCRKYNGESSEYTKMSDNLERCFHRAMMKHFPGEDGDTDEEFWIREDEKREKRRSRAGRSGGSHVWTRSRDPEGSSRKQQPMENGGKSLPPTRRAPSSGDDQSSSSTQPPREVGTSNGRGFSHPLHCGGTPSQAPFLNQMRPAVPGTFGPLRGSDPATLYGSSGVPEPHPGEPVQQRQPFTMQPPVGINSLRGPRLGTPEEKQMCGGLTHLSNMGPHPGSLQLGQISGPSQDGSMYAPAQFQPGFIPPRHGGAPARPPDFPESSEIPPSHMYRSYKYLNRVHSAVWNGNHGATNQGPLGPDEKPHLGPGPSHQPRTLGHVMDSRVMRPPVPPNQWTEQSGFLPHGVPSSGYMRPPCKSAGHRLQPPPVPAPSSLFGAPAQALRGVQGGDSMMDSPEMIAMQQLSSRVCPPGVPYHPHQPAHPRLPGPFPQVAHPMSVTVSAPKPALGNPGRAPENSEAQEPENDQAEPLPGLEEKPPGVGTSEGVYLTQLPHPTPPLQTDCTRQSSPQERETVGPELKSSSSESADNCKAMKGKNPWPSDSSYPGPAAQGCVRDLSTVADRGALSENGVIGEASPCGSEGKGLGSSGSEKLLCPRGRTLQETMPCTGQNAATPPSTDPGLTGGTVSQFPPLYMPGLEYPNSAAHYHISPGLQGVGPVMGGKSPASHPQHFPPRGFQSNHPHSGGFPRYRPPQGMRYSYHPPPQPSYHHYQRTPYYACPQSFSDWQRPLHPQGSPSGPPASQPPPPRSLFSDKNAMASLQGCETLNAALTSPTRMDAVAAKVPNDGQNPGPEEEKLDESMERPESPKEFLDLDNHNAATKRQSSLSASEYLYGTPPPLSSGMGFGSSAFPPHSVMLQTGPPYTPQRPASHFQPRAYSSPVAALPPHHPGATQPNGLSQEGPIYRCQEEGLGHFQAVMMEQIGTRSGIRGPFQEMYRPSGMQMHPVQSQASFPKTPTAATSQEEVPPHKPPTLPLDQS

`CNC(=O)c1cc(OCC(=O)Nc2ccccc2)ccc1OC1CCOCC1` displayed an equilibrium dissociation constant (Kd) in experiment [1] of 6.8 µM. Besides, the ΔTm in experiment [2] stood at 7.1 °C; in experiment [3] it was 6.5 °C; in experiment [4] it was 3.3 °C.

On to `Cc1nn(CCO)c2c1C(=O)CCC2`, for which the ΔTm in experiment [5] came to 0.9 °C. For the compound `COc1cccc2onc(N)c12`, in experiment [5], the ΔTm was 0.8 °C. As to `COC(=O)c1ccc(N2CCOCC2)nc1`, the ΔTm in experiment [5] came out at 0.7 °C. For the compound `NCc1ccc(-c2csnn2)cc1`, in experiment [5], the thermal shift (ΔTm) was determined as 1 °C.

Turning to `NC1CCN(C(=O)C2CC2)CC1`, the ΔTm in experiment [5] came out at 1 °C.

As to `NC(=O)c1cccc2c1OCCO2`, the ΔTm in experiment [5] is 0.8 °C. Consider `Oc1ccccc1-c1ccno1`, for which, in experiment [5], the ΔTm came to 1.3 °C. For the compound `NC(=O)c1ccc2[nH]ccc2c1`, the ΔTm in experiment [5] amounted to 2 °C. On to `CN1Cc2ccccc2C1=O`, for which the ΔTm in experiment [5] was 1.5 °C. Turning to `Cc1c(N)c(=O)n(-c2ccccc2)n1C`, in experiment [5], the ΔTm amounted to 0.6 °C. For `Cc1cc(=O)n(C)c2cc(NS(C)(=O)=O)ccc12`, in experiment [6], the inhibition result was “Active”.

As for `Cn1c(=O)ccc2ccccc21`, the ΔTm in experiment [5] came out at 2 °C. For `CC(=O)Nc1ccc2c(C)cc(=O)n(C)c2c1`, the ΔTm in experiment [5] came out at 2.6 °C. Further, the inhibition result in experiment [6] was “Active”.
